# According to article PMC10974743, “Design, Synthesis, and Biological Evaluation of Novel Phenoxy Acetic Acid Derivatives as Selective COX-2 Inhibitors Coupled with Comprehensive Bio-Pharmacological Inquiry, Histopathological Profiling, and Toxicological Scrutiny” (Molecules, 2024):
# Biological target: T1, human COX-2 (Homo sapiens, UniProt P35354)
# T1 sequence (P35354 18-604): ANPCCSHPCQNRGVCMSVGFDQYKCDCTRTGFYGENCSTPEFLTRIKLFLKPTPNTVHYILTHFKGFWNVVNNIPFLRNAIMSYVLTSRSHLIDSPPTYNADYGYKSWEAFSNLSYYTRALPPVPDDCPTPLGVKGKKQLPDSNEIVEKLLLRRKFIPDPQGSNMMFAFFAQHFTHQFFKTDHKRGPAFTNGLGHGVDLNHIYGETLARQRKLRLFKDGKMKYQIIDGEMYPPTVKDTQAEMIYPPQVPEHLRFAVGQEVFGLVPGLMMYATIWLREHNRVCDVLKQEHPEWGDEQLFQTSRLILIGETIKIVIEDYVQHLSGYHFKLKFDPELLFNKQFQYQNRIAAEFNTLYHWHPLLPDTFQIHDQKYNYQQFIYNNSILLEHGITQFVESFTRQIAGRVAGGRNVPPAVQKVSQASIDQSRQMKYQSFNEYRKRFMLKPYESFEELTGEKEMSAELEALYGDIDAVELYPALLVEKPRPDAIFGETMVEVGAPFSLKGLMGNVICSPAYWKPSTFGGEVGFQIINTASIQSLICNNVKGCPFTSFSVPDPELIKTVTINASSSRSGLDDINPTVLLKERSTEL
# Assay: In vitro COX-2 inhibition assay (Cayman colorimetric COX inhibitor screening kit)
# Conditions: COX-1 (IC50)/COX-2 (IC50)
# Description: The in vitro enzyme assays were performed at the Biochemistry Department, Cairo
# General Hospital, Egypt. Cayman® colorimetric COX (ovine) inhibitor screening assay kit (Item
# enzymes in presence of all newly compounds. Generally, this kit is dependent on the reductive
# reaction of COX. A specific antibody binds to PGH2 produced by COX and is further quantified
# by the ELISA technique as previously reported. After that, the selectivity index (SI) was calculated
# as the following equation:
# 𝐒𝐞𝐥𝐞𝐜𝐭𝐢𝐯𝐢𝐭𝐲 𝐢𝐧𝐝𝐞𝐱 (𝐒𝐈) = 𝐈𝐂₅₀𝐨𝐟 𝐂𝐎𝐗 − 𝟏
row,SI (COX-2 selectivity index),SMILES
1,100.00,"Cc1ccc(C(=O)NN=Cc2cc(Br)ccc2OCC(=O)O)cc1 [Compound 5e, 2-(4-Bromo-2-((2-(4-methylbenzoyl)hydrazineylidene)methyl)phenoxy)acetic acid]"
2,79.57,"O=C(O)COc1ccccc1C=NNC(=O)CNc1ccc(Cl)cc1 [Compound 10c, 2-(2-((2-((4-Chlorophenyl)glycyl)hydrazineylidene)methyl)phenoxy)acetic acid]"
3,87.50,O=C(O)COc1ccc(Br)cc1/C=N/NC(=O)CNc1ccccc1 [Compound 10d]
4,67.83,"Cc1ccc(NCC(=O)NN=Cc2cc(Br)ccc2OCC(=O)O)cc1 [Compound 10e, 2-(4-Bromo-2-((2-(p-tolylglycyl)hydrazineylidene)methyl)phenoxy)aceticacid]"

# Same assay, conditions: COX-2 IC50, mean ± SEM, n = 3
row,IC50,SMILES
1,70 ± 10 nM,"Cc1ccc(C(=O)NN=Cc2cc(Br)ccc2OCC(=O)O)cc1 [Compound 5e, 2-(4-Bromo-2-((2-(4-methylbenzoyl)hydrazineylidene)methyl)phenoxy)acetic acid]"
2,70 ± 10 nM,"O=C(O)COc1ccccc1C=NNC(=O)CNc1ccc(Cl)cc1 [Compound 10c, 2-(2-((2-((4-Chlorophenyl)glycyl)hydrazineylidene)methyl)phenoxy)acetic acid]"
3,80 ± 10 nM,O=C(O)COc1ccc(Br)cc1/C=N/NC(=O)CNc1ccccc1 [Compound 10d]
4,60 ± 10 nM,"Cc1ccc(NCC(=O)NN=Cc2cc(Br)ccc2OCC(=O)O)cc1 [Compound 10e, 2-(4-Bromo-2-((2-(p-tolylglycyl)hydrazineylidene)methyl)phenoxy)aceticacid]"

# Biological target: T2, ovine COX-1 (Ovis aries, UniProt P05979)
# T2 sequence (P05979 25-600): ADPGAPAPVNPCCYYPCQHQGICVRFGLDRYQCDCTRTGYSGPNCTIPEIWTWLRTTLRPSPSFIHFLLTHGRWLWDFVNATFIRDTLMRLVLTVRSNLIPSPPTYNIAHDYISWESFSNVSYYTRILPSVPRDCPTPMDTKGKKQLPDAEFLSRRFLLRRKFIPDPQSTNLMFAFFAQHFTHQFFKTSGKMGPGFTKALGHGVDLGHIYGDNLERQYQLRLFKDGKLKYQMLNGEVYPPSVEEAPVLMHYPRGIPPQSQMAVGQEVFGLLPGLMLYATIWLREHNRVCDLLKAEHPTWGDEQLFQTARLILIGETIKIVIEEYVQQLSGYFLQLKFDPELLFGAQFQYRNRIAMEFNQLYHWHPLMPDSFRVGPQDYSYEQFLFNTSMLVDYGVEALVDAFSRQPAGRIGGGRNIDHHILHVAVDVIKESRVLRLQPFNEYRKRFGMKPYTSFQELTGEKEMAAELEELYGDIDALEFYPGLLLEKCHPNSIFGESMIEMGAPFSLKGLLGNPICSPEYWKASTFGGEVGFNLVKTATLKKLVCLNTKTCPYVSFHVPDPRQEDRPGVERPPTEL
# Assay: In vitro COX-1 inhibition assay (Cayman colorimetric COX inhibitor screening kit)
# Conditions: not given
row,IC50,SMILES
1,7000 ± 200 nM,"Cc1ccc(C(=O)NN=Cc2cc(Br)ccc2OCC(=O)O)cc1 [Compound 5e, 2-(4-Bromo-2-((2-(4-methylbenzoyl)hydrazineylidene)methyl)phenoxy)acetic acid]"
2,5570 ± 120 nM,"O=C(O)COc1ccccc1C=NNC(=O)CNc1ccc(Cl)cc1 [Compound 10c, 2-(2-((2-((4-Chlorophenyl)glycyl)hydrazineylidene)methyl)phenoxy)acetic acid]"
3,7000 ± 200 nM,O=C(O)COc1ccc(Br)cc1/C=N/NC(=O)CNc1ccccc1 [Compound 10d]
4,4070 ± 120 nM,"Cc1ccc(NCC(=O)NN=Cc2cc(Br)ccc2OCC(=O)O)cc1 [Compound 10e, 2-(4-Bromo-2-((2-(p-tolylglycyl)hydrazineylidene)methyl)phenoxy)aceticacid]"

# Tested on: carrageenan-induced paw edema
# Assay: Carrageenan paw edema test (paw thickness, paw weight); note: test concentration or dose not given here
# Conditions: 1st h after carrageenan, oral, mean ± SD, n = 6
row,SMILES,Paw thickness difference
1,"Cc1ccc(C(=O)NN=Cc2cc(Br)ccc2OCC(=O)O)cc1 [Compound 5e, 2-(4-Bromo-2-((2-(4-methylbenzoyl)hydrazineylidene)methyl)phenoxy)acetic acid]",1.57 ± 0.4 mm
2,"O=C(O)COc1ccccc1C=NNC(=O)CNc1ccc(Cl)cc1 [Compound 10c, 2-(2-((2-((4-Chlorophenyl)glycyl)hydrazineylidene)methyl)phenoxy)acetic acid]",1.65 ± 0.22 mm
3,O=C(O)COc1ccc(Br)cc1/C=N/NC(=O)CNc1ccccc1 [Compound 10d],1.55 ± 0.41 mm
4,"Cc1ccc(NCC(=O)NN=Cc2cc(Br)ccc2OCC(=O)O)cc1 [Compound 10e, 2-(4-Bromo-2-((2-(p-tolylglycyl)hydrazineylidene)methyl)phenoxy)aceticacid]",1.79 ± 0.39 mm

# Same assay, conditions: 1st h, vs carrageenan group
row,SMILES,Percentage of inhibition of paw thickness
1,"Cc1ccc(C(=O)NN=Cc2cc(Br)ccc2OCC(=O)O)cc1 [Compound 5e, 2-(4-Bromo-2-((2-(4-methylbenzoyl)hydrazineylidene)methyl)phenoxy)acetic acid]",20.35%
2,"O=C(O)COc1ccccc1C=NNC(=O)CNc1ccc(Cl)cc1 [Compound 10c, 2-(2-((2-((4-Chlorophenyl)glycyl)hydrazineylidene)methyl)phenoxy)acetic acid]",16.47%
3,O=C(O)COc1ccc(Br)cc1/C=N/NC(=O)CNc1ccccc1 [Compound 10d],21.37%
4,"Cc1ccc(NCC(=O)NN=Cc2cc(Br)ccc2OCC(=O)O)cc1 [Compound 10e, 2-(4-Bromo-2-((2-(p-tolylglycyl)hydrazineylidene)methyl)phenoxy)aceticacid]",9.38%

# Same assay, conditions: 2nd h after carrageenan, oral, mean ± SD, n = 6
row,SMILES,Paw thickness difference
1,"Cc1ccc(C(=O)NN=Cc2cc(Br)ccc2OCC(=O)O)cc1 [Compound 5e, 2-(4-Bromo-2-((2-(4-methylbenzoyl)hydrazineylidene)methyl)phenoxy)acetic acid]",2.53 ± 0.48 mm
2,"O=C(O)COc1ccccc1C=NNC(=O)CNc1ccc(Cl)cc1 [Compound 10c, 2-(2-((2-((4-Chlorophenyl)glycyl)hydrazineylidene)methyl)phenoxy)acetic acid]",2.64 ± 0.33 mm
3,O=C(O)COc1ccc(Br)cc1/C=N/NC(=O)CNc1ccccc1 [Compound 10d],2.60 ± 0.21 mm
4,"Cc1ccc(NCC(=O)NN=Cc2cc(Br)ccc2OCC(=O)O)cc1 [Compound 10e, 2-(4-Bromo-2-((2-(p-tolylglycyl)hydrazineylidene)methyl)phenoxy)aceticacid]",3.00 ± 0.30 mm

# Same assay, conditions: 2nd h, vs carrageenan group
row,SMILES,Percentage of inhibition of paw thickness
1,"Cc1ccc(C(=O)NN=Cc2cc(Br)ccc2OCC(=O)O)cc1 [Compound 5e, 2-(4-Bromo-2-((2-(4-methylbenzoyl)hydrazineylidene)methyl)phenoxy)acetic acid]",23.28%
2,"O=C(O)COc1ccccc1C=NNC(=O)CNc1ccc(Cl)cc1 [Compound 10c, 2-(2-((2-((4-Chlorophenyl)glycyl)hydrazineylidene)methyl)phenoxy)acetic acid]",19.99%
3,O=C(O)COc1ccc(Br)cc1/C=N/NC(=O)CNc1ccccc1 [Compound 10d],21.15%
4,"Cc1ccc(NCC(=O)NN=Cc2cc(Br)ccc2OCC(=O)O)cc1 [Compound 10e, 2-(4-Bromo-2-((2-(p-tolylglycyl)hydrazineylidene)methyl)phenoxy)aceticacid]",9.01%

# Same assay, conditions: 3rd h after carrageenan, oral, mean ± SD, n = 6
row,SMILES,Paw thickness difference
1,"Cc1ccc(C(=O)NN=Cc2cc(Br)ccc2OCC(=O)O)cc1 [Compound 5e, 2-(4-Bromo-2-((2-(4-methylbenzoyl)hydrazineylidene)methyl)phenoxy)acetic acid]",3.43 ± 0.10 mm
2,"O=C(O)COc1ccccc1C=NNC(=O)CNc1ccc(Cl)cc1 [Compound 10c, 2-(2-((2-((4-Chlorophenyl)glycyl)hydrazineylidene)methyl)phenoxy)acetic acid]",3.11 ± 0.29 mm
3,O=C(O)COc1ccc(Br)cc1/C=N/NC(=O)CNc1ccccc1 [Compound 10d],2.93 ± 0.37 mm
4,"Cc1ccc(NCC(=O)NN=Cc2cc(Br)ccc2OCC(=O)O)cc1 [Compound 10e, 2-(4-Bromo-2-((2-(p-tolylglycyl)hydrazineylidene)methyl)phenoxy)aceticacid]",3.58 ± 0.17 mm

# Same assay, conditions: 3rd h, vs carrageenan group
row,SMILES,Percentage of inhibition of paw thickness
1,"Cc1ccc(C(=O)NN=Cc2cc(Br)ccc2OCC(=O)O)cc1 [Compound 5e, 2-(4-Bromo-2-((2-(4-methylbenzoyl)hydrazineylidene)methyl)phenoxy)acetic acid]",18.71%
2,"O=C(O)COc1ccccc1C=NNC(=O)CNc1ccc(Cl)cc1 [Compound 10c, 2-(2-((2-((4-Chlorophenyl)glycyl)hydrazineylidene)methyl)phenoxy)acetic acid]",26.25%
3,O=C(O)COc1ccc(Br)cc1/C=N/NC(=O)CNc1ccccc1 [Compound 10d],30.56%
4,"Cc1ccc(NCC(=O)NN=Cc2cc(Br)ccc2OCC(=O)O)cc1 [Compound 10e, 2-(4-Bromo-2-((2-(p-tolylglycyl)hydrazineylidene)methyl)phenoxy)aceticacid]",15.28%

# Same assay, conditions: 4th h after carrageenan, oral, mean ± SD, n = 6
row,SMILES,Paw thickness difference
1,"Cc1ccc(C(=O)NN=Cc2cc(Br)ccc2OCC(=O)O)cc1 [Compound 5e, 2-(4-Bromo-2-((2-(4-methylbenzoyl)hydrazineylidene)methyl)phenoxy)acetic acid]",3.55 ± 0.11 mm
2,"O=C(O)COc1ccccc1C=NNC(=O)CNc1ccc(Cl)cc1 [Compound 10c, 2-(2-((2-((4-Chlorophenyl)glycyl)hydrazineylidene)methyl)phenoxy)acetic acid]",3.81 ± 0.19 mm
3,O=C(O)COc1ccc(Br)cc1/C=N/NC(=O)CNc1ccccc1 [Compound 10d],3.44 ± 0.37 mm
4,"Cc1ccc(NCC(=O)NN=Cc2cc(Br)ccc2OCC(=O)O)cc1 [Compound 10e, 2-(4-Bromo-2-((2-(p-tolylglycyl)hydrazineylidene)methyl)phenoxy)aceticacid]",3.98 ± 0.26 mm

# Same assay, conditions: 4th h, vs carrageenan group
row,SMILES,Percentage of inhibition of paw thickness
1,"Cc1ccc(C(=O)NN=Cc2cc(Br)ccc2OCC(=O)O)cc1 [Compound 5e, 2-(4-Bromo-2-((2-(4-methylbenzoyl)hydrazineylidene)methyl)phenoxy)acetic acid]",29.59%
2,"O=C(O)COc1ccccc1C=NNC(=O)CNc1ccc(Cl)cc1 [Compound 10c, 2-(2-((2-((4-Chlorophenyl)glycyl)hydrazineylidene)methyl)phenoxy)acetic acid]",24.47%
3,O=C(O)COc1ccc(Br)cc1/C=N/NC(=O)CNc1ccccc1 [Compound 10d],31.87%
4,"Cc1ccc(NCC(=O)NN=Cc2cc(Br)ccc2OCC(=O)O)cc1 [Compound 10e, 2-(4-Bromo-2-((2-(p-tolylglycyl)hydrazineylidene)methyl)phenoxy)aceticacid]",21.24%

# Same assay, conditions: 5th h after carrageenan, oral, mean ± SD, n = 6
row,SMILES,Paw thickness difference
1,"Cc1ccc(C(=O)NN=Cc2cc(Br)ccc2OCC(=O)O)cc1 [Compound 5e, 2-(4-Bromo-2-((2-(4-methylbenzoyl)hydrazineylidene)methyl)phenoxy)acetic acid]",3.68 ± 0.15 mm
2,"O=C(O)COc1ccccc1C=NNC(=O)CNc1ccc(Cl)cc1 [Compound 10c, 2-(2-((2-((4-Chlorophenyl)glycyl)hydrazineylidene)methyl)phenoxy)acetic acid]",4.22 ± 0.28 mm
3,O=C(O)COc1ccc(Br)cc1/C=N/NC(=O)CNc1ccccc1 [Compound 10d],3.73 ± 0.34 mm
4,"Cc1ccc(NCC(=O)NN=Cc2cc(Br)ccc2OCC(=O)O)cc1 [Compound 10e, 2-(4-Bromo-2-((2-(p-tolylglycyl)hydrazineylidene)methyl)phenoxy)aceticacid]",4.17 ± 0.24 mm

# Same assay, conditions: 5th h, vs carrageenan group
row,SMILES,Percentage of inhibition of paw thickness
1,"Cc1ccc(C(=O)NN=Cc2cc(Br)ccc2OCC(=O)O)cc1 [Compound 5e, 2-(4-Bromo-2-((2-(4-methylbenzoyl)hydrazineylidene)methyl)phenoxy)acetic acid]",30.72%
2,"O=C(O)COc1ccccc1C=NNC(=O)CNc1ccc(Cl)cc1 [Compound 10c, 2-(2-((2-((4-Chlorophenyl)glycyl)hydrazineylidene)methyl)phenoxy)acetic acid]",20.54%
3,O=C(O)COc1ccc(Br)cc1/C=N/NC(=O)CNc1ccccc1 [Compound 10d],29.71%
4,"Cc1ccc(NCC(=O)NN=Cc2cc(Br)ccc2OCC(=O)O)cc1 [Compound 10e, 2-(4-Bromo-2-((2-(p-tolylglycyl)hydrazineylidene)methyl)phenoxy)aceticacid]",21.42%

# Same assay, conditions: right vs left paw, after 5 h, mean ± SD, n = 6
row,SMILES,Paw Weight Increase
1,"Cc1ccc(C(=O)NN=Cc2cc(Br)ccc2OCC(=O)O)cc1 [Compound 5e, 2-(4-Bromo-2-((2-(4-methylbenzoyl)hydrazineylidene)methyl)phenoxy)acetic acid]",47.55 ± 2.41 ^abcd %
2,"O=C(O)COc1ccccc1C=NNC(=O)CNc1ccc(Cl)cc1 [Compound 10c, 2-(2-((2-((4-Chlorophenyl)glycyl)hydrazineylidene)methyl)phenoxy)acetic acid]",69.01 ± 4.61 ^abcd %
3,O=C(O)COc1ccc(Br)cc1/C=N/NC(=O)CNc1ccccc1 [Compound 10d],60.8 ± 4.27 ^abcd %
4,"Cc1ccc(NCC(=O)NN=Cc2cc(Br)ccc2OCC(=O)O)cc1 [Compound 10e, 2-(4-Bromo-2-((2-(p-tolylglycyl)hydrazineylidene)methyl)phenoxy)aceticacid]",64.95 ± 6.79 ^abcd %
